This note sets out measurements from patent US10174331B2, “Methods and compositions for nuclease-mediated targeted integration of transgenes” (Sangamo BioSciences, Inc., priority 2012, dated 2019).

The subject of experiment [1] is wheat cv. Bobwhite MPB26RH. The experiment can be described thus: Basal tolerance to sulfometuron methyl at plant regeneration stage. It is filed as in vivo, Triticum aestivum. The note with it: wild-type cv. Bobwhite MPB26RH; 2000 nM; 2 weeks. Here is the method: The basal tolerance of the wild-type donor wheat line to sulfometuron methyl at the plant regeneration stage was determined as follows: Scutella of immature zygotic embryos from the donor wheat line were isolated and placed in 10 cm PETRI™ dishes containing CIM medium. Somatic embryogenic callus was allowed to form by incubating at 24° C. in the dark for 4 weeks. The SEC was transferred to 10 cm PETRI™ dishes containing DRM medium supplemented with 0, 100, 500, 1000, 1500, 2000, 2500 and 3000 nM sulfometuron methyl, respectively. Twenty CIM were placed in each PETRI™ dish. A total of 60 CIM were tested for basal tolerance response at each sulfometuron methyl concentration. After incubation for 2 weeks at 24° C. under a 16/8 (light/dark) hour photoperiod in a growth room, the regeneration response was recorded.

The subject of experiment [2] is scutella of wheat cv. Bobwhite MPB26RH. Put plainly: Basal tolerance to sulfometuron methyl at callus induction stage. The note with it: 100 nM, 4 weeks. Format: cell-based, Triticum aestivum. As for the experimental part:
A series of experiments were performed to determine optimal selection conditions for regenerating wheat plants expressing the AHAS(P197S) mutation conferring tolerance to sulfonylurea class herbicides. These experiments were based on testing the basal tolerance of the wild-type donor wheat line cv. Bobwhite MPB26RH (P197/P197 genotype, which confers susceptibility to sulfonylureas) at the callus induction, plant regeneration and rooting stages of an established wheat transformation system. Similar experiments were performed to determine the basal tolerance of transgenic cv. Bobwhite MPB26RH events that had randomly integrated T-DNA expressing the AHAS(P197) mutation, which confers tolerance to sulfonylurea selection agents.
The basal tolerance of the wild-type donor wheat line to sulfometuron methyl at the callus induction stage was determined as follows: Scutella of immature zygotic embryos were isolated, as previously described, and placed in 10 cm PETRI™ dishes containing CIM medium supplemented with 0, 100, 500, 1000, 1500 and 2000 nM sulfometuron methyl, respectively. Twenty scutella were placed in each PETRI™ dish. A total of 60 scutella were tested at each sulfometuron methyl concentration. After incubation at 24° C. in the dark for 4 weeks, the amount of somatic embryogenic callus formation (SEC) at each sulfometuron methyl concentration was recorded. […]

The subject of experiment [3] is wheat cv. Bobwhite MPB26RH, wild-type and AHAS(P197S) transgenic events. Put plainly: Basal tolerance to sulfometuron methyl at plant rooting stage. Format: in vivo, Triticum aestivum. The note with it: wild-type donor wheat line; concentrations higher than 400 nM; 3 weeks. As for the experimental part:
The basal tolerance of the wild-type donor wheat line to sulfometuron methyl at the plant rooting stage was determined as follows: Scutella of immature zygotic embryos were isolated and placed in 10 cm PETRI™ dishes containing CIM medium. Somatic embryogenic callus was allowed to form by incubating at 24° C. in the dark for 4 weeks. The SEC was transferred to 10 cm PETRI™ dishes containing DRM medium and incubated for 2 weeks at 24° C. under a 16/8 (light/dark) hour photoperiod to allow plant regeneration to take place. Regenerated plants were transferred to 10 cm PETRI™ dishes containing RM medium supplemented with 0, 100, 200, 250, 300, 400, 500, 1000 and 2000 nM sulfometuron methyl, respectively. Ten regenerated plants were placed in each PETRI™ dish. […] After incubation for 3 weeks at 24° C. under a 16/8 (light/dark) hour photoperiod in a growth room, the root formation response was recorded.
The basal tolerance of transgenic wheat events with randomly integrated, low-copy (≤3) T-DNA expressing the AHAS(P197S) mutation to sulfometuron methyl at the plant rooting stage was determined as follows: Four independent transgenic events were randomly selected and multiplied in vitro by sub-culturing on multiplication medium. […] After incubation for 2 weeks at 24° C. under a 16/8 (light/dark) hour photoperiod in a growth room, the root formation response was recorded.

The test system of experiment [4] is scutella of wheat cv. Bobwhite MPB26RH and cv. Clearfield Janz. Put plainly: Basal tolerance to IMAZAMOX at callus induction stage. Format: cell-based, Triticum aestivum. As for the experimental part:
A series of experiments were performed to determine optimal selection conditions for regenerating AHAS edited wheat plants. These experiments were based on testing the basal tolerance to IMAZAMOX™ of the donor wheat line cv. Bobwhite MPB26RH(S653/S653 genotype) at the callus induction, plant regeneration and rooting stages of an established wheat transformation system. Similar experiments were performed to determine the basal tolerance and resistance of cv. Clearfield Janz genotypes carrying the different doses of the S653N mutation; i.e., plants with N653/N653 and S653/S653 genotypes.
The basal tolerance of the donor wheat line cv. Bobwhite MPB26RH and basal resistance of cv. Clearfield Janz (N653/N653) genotype to IMAZAMOX® at the callus induction stage was determined as follows: Scutella of immature zygotic embryos from each wheat line were isolated as described previously and placed in 10 cm PETRI™ dishes containing CIM medium supplemented with 0, 50, 100, 200, 300, 400 and 500 nM IMAZAMOX® respectively. Twenty scutella were placed in each PETRI™ dish. A total of 60 scutella from each of the donor wheat line cv. Bobwhite MPB26RH and cv. […] After incubation at 24° C. in the dark for 4 weeks, the amount of somatic embryogenic callus formation (SEC) at each IMAZAMOX® concentration was recorded. […]

Experiment [5] deals with wheat cv. Bobwhite MPB26RH and cv. Clearfield Janz. Put plainly: Basal tolerance to IMAZAMOX at plant regeneration stage. It is filed as in vivo, Triticum aestivum. Here is the method:
The basal tolerance of the donor wheat line cv. Bobwhite MPB26RH to IMAZAMOX® at the plant regeneration stage was determined as follows: Scutella of immature zygotic embryos from the donor wheat line were isolated as described previously and placed in 10 cm PETRI™ dishes containing CIM medium. Somatic embryogenic callus was allowed to form by incubating at 24° C. in the dark for 4 weeks. The SEC was transferred to 10 cm PETRI™ dishes containing DRM medium supplemented with 0, 100, 200, 300, 400, 500 and 1000 nM IMAZAMOX® respectively. Twenty CIM were placed in each PETRI™ dish. A total of 60 CIM were tested for basal tolerance response at each IMAZAMOX® concentration. After incubation for 2 weeks at 24° C. under a 16/8 (light/dark) hour photoperiod in a growth room, the regeneration response was recorded.
The basal tolerance of the cv. Clearfield Janz (S653/S653) genotype and basal resistance of the cv. Clearfield Janz (N653/N653) genotype to IMAZAMOX® at the plant regeneration stage was determined using a modified approach, as cv. […] Seed for each cv. Clearfield Janz genotype was germinated using the aseptic approach described above for producing wheat mesophyll protoplasts. […] After incubation for 3 weeks at 24° C. under a 16/8 (light/dark) hour photoperiod in a growth room, the growth response was recorded. […]

Regarding `COC(=O)c1ccccc1S(=O)(=O)NC(=O)Nc1nc(C)cc(C)n1` [sulfometuron methyl], the “reduction of plant regeneration compared to untreated samples” value in experiment [1] is listed as “about 80%”. Further, the “reduction of SEC formation compared to untreated samples” value in experiment [2] is given as “about 70%”. For the same compound, the “root formation compared to untreated samples” value in experiment [3] is listed as “severely inhibited”.
In the case of `COCc1cnc(C2=NC(C)(C(C)C)C(=O)N2)c(C(=O)O)c1` (stereo not shown) [IMAZAMOX], the “reduction of SEC formation compared to untreated samples” value in experiment [4] (cv. Bobwhite MPB26RH, 100 nM, 4 weeks) is reported as “about 70%”. Also, the “callus formation relative to the untreated control” value in experiment [4] (cv. Clearfield Janz (N653/N653), any concentration tested (50-500 nM)) is on record as “unaffected”. For the same compound, the “reduction of plant regeneration compared to untreated samples” value in experiment [5] (cv. Bobwhite MPB26RH, 200 nM, 2 weeks) is listed as “about 80%”. Besides, the “concentration that had to be exceeded before plant growth was strongly suppressed” value in experiment [5] (cv. Clearfield Janz (N653/N653), 3 weeks) is recorded as “exceeded 2,000 nM”.
